Assay results reported in PMC7048932, “Examining sterically demanding lysine analogs for histone lysine methyltransferase catalysis” (Scientific Reports, 2020).
“Also recorded” adds a separate entry of the source.

What was measured:
SETD8 = biological target: T1, SETD8 (Homo sapiens, UniProt Q9NQR1); test: MALDI-TOF MS methylation assay of H4K20 peptides with SETD8; assay type: biochemical; details: peptide 100 µM, SETD8 10 µM, SAM 1 mM, 1 h and 5 h, 37 °C, MALDI-MS
T1 construct: His6 (N); made in house; host or cells: E. coli BL21 (DE3)pLysS-rosetta
T1 sequence (Q9NQR1 1-393): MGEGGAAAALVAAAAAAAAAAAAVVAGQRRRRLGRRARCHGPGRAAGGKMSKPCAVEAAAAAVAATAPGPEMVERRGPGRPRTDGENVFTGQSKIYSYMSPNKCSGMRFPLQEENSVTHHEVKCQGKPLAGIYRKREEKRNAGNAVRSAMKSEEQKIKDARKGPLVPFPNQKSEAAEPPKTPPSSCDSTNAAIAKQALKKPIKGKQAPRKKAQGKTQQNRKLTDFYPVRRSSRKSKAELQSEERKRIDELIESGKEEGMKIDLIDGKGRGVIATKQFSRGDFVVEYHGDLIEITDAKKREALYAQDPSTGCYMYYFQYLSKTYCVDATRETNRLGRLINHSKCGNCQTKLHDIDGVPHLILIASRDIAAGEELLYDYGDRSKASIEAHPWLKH
Protocol: MALDI-MS methyltransferases activity experiments were performed using a Bruker instrument in the reflectron positive mode. […] In case of G9a and GLP, similar conditions were used, except (500 µM) of SAM was added to the reaction mixture. Samples were incubated in an Eppendorf vial 1.5 mL using thermomixer for 1 h at 37 °C. A 5 µL aliquot of the solution was mixed with 5 µL of MeOH, after which 5 µL of this mixture was mixed with 5 µL of α-cyano-4-hydroxycinamic acid matrix (CHCA, 5 mg/mL in 125:125 µL acetonitrile/water). The spots were placed on a stainless steel MALDI plate (MS 96 target ground steel BC of Bruker, Germany). The mass corresponding to one monomethylation observed as +14 Da, dimethylation observed as +28 Da and trimethylation observed as +42 Da. The enzymatic activity was determined by taking the peak areas of each methylation state, including all isotopes and adducts, and was annotated using FlexAnalysis software (Bruker Daltonics, Germany). […] Methylated peptide substrates were repeated five times and the unmethylated substrates were triplicated. Sequences of the examined peptides are given in (Supplementary Table 1).

GLP [1] = biological target: T2, GLP (Homo sapiens, UniProt Q9H9B1); test: NMR assay of GLP-catalyzed methylation of H3K9 peptides; assay type: biochemical; details: peptide 400 µM, GLP 8 µM, SAM 2 mM, 50 mM Tris-d11.HCl pD 8.0, 1 h, 37 °C
T2 construct: His6 (N); made in house; host or cells: E. coli BL21 (DE3)pLysS-rosetta
T2 sequence (Q9H9B1 1-1298): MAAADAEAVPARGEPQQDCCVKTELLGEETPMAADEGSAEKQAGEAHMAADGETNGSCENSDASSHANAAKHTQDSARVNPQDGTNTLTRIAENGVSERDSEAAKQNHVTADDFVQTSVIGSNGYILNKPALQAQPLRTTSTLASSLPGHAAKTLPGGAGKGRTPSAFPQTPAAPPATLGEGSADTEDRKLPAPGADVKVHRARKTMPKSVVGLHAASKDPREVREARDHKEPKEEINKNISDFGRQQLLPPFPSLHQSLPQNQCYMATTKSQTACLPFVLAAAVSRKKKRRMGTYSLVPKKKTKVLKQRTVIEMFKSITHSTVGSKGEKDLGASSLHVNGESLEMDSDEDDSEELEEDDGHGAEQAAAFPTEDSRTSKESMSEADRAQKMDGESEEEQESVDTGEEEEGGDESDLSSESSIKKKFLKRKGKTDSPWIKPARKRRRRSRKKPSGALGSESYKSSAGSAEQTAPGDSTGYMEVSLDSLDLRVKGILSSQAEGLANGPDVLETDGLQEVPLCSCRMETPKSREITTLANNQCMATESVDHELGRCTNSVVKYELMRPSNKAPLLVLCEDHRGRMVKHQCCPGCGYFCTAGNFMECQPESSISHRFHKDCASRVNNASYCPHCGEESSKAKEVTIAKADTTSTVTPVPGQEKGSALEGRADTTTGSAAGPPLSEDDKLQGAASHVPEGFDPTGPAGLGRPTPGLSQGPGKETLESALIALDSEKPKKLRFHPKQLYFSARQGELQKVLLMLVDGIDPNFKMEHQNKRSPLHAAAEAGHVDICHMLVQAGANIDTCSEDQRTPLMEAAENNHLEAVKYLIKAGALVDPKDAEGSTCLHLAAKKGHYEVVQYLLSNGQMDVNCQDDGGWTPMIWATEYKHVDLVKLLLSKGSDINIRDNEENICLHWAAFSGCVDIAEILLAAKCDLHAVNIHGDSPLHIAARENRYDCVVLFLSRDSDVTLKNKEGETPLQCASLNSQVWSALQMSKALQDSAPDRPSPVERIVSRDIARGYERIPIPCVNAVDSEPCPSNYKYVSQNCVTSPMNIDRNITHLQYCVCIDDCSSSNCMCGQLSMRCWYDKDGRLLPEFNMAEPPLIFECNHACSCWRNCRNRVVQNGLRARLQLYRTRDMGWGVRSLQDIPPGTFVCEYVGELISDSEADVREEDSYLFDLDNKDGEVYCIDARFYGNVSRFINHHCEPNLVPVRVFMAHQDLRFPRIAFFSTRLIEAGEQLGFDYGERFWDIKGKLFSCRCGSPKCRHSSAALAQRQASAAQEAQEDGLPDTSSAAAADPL

GLP [2] = biological target: T2, GLP; test: MALDI-TOF MS methylation assay of H3K9 peptides with GLP; assay type: biochemical; details: peptide 100 µM, GLP 10 µM, SAM 1 mM, 5 h, 37 °C, MALDI-MS
Protocol: MALDI-MS methyltransferases activity experiments were performed using a Bruker instrument in the reflectron positive mode. For regular methyltransferase standard conditions experiment which carried out in 30 µL total volume, the mixture contains peptide (100 µM), SAM (200 µM), SETD8 or SETD7 (2 µM), in assay buffer 50 mM Tris at optimal pH 8.0. In case of G9a and GLP, similar conditions were used, except (500 µM) of SAM was added to the reaction mixture. […] A 5 µL aliquot of the solution was mixed with 5 µL of MeOH, after which 5 µL of this mixture was mixed with 5 µL of α-cyano-4-hydroxycinamic acid matrix (CHCA, 5 mg/mL in 125:125 µL acetonitrile/water). The spots were placed on a stainless steel MALDI plate (MS 96 target ground steel BC of Bruker, Germany). The mass corresponding to one monomethylation observed as +14 Da, dimethylation observed as +28 Da and trimethylation observed as +42 Da. The enzymatic activity was determined by taking the peak areas of each methylation state, including all isotopes and adducts, and was annotated using FlexAnalysis software (Bruker Daltonics, Germany). […] Methylated peptide substrates were repeated five times and the unmethylated substrates were triplicated. Sequences of the examined peptides are given in (Supplementary Table 1).

G9a = biological target: T3, G9a (Homo sapiens, UniProt Q96KQ7); test: MALDI-TOF MS methylation assay of H3K9 peptides with G9a; assay type: biochemical; details: peptide 100 µM, G9a 2 µM, SAM 500 µM, 1 h, 37 °C
T3 construct: His6 (N); made in house; host or cells: E. coli BL21 (DE3)pLysS-rosetta
T3 sequence (Q96KQ7 1-1210): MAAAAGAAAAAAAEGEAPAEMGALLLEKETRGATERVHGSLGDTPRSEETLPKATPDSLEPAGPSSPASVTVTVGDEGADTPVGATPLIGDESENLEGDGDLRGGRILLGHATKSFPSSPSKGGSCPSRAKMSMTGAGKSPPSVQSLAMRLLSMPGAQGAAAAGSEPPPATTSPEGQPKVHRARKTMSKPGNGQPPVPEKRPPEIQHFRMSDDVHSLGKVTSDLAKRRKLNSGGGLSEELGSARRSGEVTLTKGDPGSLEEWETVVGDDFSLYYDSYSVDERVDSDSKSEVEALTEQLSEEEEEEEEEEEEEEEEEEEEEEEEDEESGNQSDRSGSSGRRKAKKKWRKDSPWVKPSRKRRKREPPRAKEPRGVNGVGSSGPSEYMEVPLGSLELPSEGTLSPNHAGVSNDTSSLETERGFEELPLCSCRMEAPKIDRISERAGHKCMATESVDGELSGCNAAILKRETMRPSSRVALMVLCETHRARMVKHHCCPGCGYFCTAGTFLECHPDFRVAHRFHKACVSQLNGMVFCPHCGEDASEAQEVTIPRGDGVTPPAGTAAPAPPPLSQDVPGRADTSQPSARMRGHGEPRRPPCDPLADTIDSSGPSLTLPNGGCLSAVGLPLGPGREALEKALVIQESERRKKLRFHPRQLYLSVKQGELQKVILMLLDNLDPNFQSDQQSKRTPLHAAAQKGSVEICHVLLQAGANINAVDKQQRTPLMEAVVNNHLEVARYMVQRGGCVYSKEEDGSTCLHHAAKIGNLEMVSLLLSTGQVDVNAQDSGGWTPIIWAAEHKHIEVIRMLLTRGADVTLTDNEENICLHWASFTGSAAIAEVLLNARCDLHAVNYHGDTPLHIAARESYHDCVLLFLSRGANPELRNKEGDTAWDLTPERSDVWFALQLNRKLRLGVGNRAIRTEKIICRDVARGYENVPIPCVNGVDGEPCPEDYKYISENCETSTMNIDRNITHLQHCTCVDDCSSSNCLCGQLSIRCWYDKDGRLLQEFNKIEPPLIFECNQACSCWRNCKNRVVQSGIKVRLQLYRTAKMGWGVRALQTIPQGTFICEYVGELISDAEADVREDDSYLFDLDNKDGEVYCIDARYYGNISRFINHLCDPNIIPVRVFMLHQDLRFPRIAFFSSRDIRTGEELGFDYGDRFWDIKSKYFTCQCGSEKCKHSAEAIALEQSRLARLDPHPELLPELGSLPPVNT
Protocol: (§1) MALDI-MS methyltransferases activity experiments were performed using a Bruker instrument in the reflectron positive mode. For regular methyltransferase standard conditions experiment which carried out in 30 µL total volume, the mixture contains peptide (100 µM), SAM (200 µM), SETD8 or SETD7 (2 µM), in assay buffer 50 mM Tris at optimal pH 8.0. In case of G9a and GLP, similar conditions were used, except (500 µM) of SAM was added to the reaction mixture. Samples were incubated in an Eppendorf vial 1.5 mL using thermomixer for 1 h at 37 °C. A 5 µL aliquot of the solution was mixed with 5 µL of MeOH, after which 5 µL of this mixture was mixed with 5 µL of α-cyano-4-hydroxycinamic acid matrix (CHCA, 5 mg/mL in 125:125 µL acetonitrile/water). The spots were placed on a stainless steel MALDI plate (MS 96 target ground steel BC of Bruker, Germany). The mass corresponding to one monomethylation observed as +14 Da, dimethylation observed as +28 Da and trimethylation observed as +42 Da. The enzymatic activity was determined by taking the peak areas of each methylation state, including all isotopes and adducts, and was annotated using FlexAnalysis software (Bruker Daltonics, Germany). […] Methylated peptide substrates were repeated five times and the unmethylated substrates were triplicated. Sequences of the examined peptides are given in (Supplementary Table 1).

SETD7 = test: MALDI-TOF MS methylation assay of H3K4 peptides with SETD7; assay type: biochemical, human; details: peptide 100 µM, SETD7 2 µM, SAM 200 µM, 1 h, 37 °C
Protocol: as §1

Substance	SETD8-catalyzed methylation, result in words, increased SETD8/SAM and prolonged incubation (SETD8)	G9a-catalyzed methylation, result in words (G9a)	SETD7-catalyzed methylation, result in words (SETD7)	further results
GGAKRHR(Ap20)VLRDNIQ [H4AP20, H4K20 peptide bearing pyridylalanine at position 20]	lack of methylation	–	–	–
GGAKRHR(F3a20)VLRDNIQ [H4F3a20, H4K20 peptide bearing meta-aminophenylalanine at position 20]	lack of methylation	–	–	–
GGAKRHR(Y20)VLRDNIQ [H4Y20, H4K20 peptide bearing tyrosine at position 20]	lack of methylation	–	–	–
ARTKQTAR(Y9)STGGKA (ARTKQTARYSTGGKA) [H3Y9]	–	lack of methylation	–	GLP-catalyzed methylation by 1H NMR / 1H-13C HSQC, result in words (GLP [1]): not methylated; GLP-catalyzed methylation, result in words, increased GLP/SAM (GLP [2]): lack of methylation
ARTK^4QTARKSTGGKA [H3K4, reference compound]	–	–	formation of monomethylated H3K4; also recorded: monomethylation	–
ARTKQTAR(Ap9)STGGKA [H3AP9]	–	lack of methylation	–	GLP-catalyzed methylation by 1H NMR / 1H-13C HSQC, result in words (GLP [1]): not methylated; GLP-catalyzed methylation, result in words, increased GLP/SAM (GLP [2]): lack of methylation
GGAKRHR(F4a20)VLRDNIQ [H4F4a20, H4K20 peptide bearing para-aminophenylalanine at position 20]	lack of methylation	–	–	–
ART(Y4)QTARKSTGGKA [H3Y4, H3K4 peptide bearing tyrosine at position 4]	–	–	lack of methylation	–
ART(Kba4)QTARKSTGGKA [H3Kba4, H3K4 peptide bearing benzylamine lysine analog at position 4]	–	–	lack of methylation	–
ARTKQTARKSTGGK [H3 1-14K9, reference compound]	–	trimethylation	–	–
ART(Ap4)QTARKSTGGKA [H3AP4, H3K4 peptide bearing pyridylalanine at position 4]	–	–	lack of methylation	–
ARTKQTAR(F4a9)STGGKA [H3F4a9]	–	lack of methylation	–	GLP-catalyzed methylation by 1H NMR / 1H-13C HSQC, result in words (GLP [1]): not methylated; GLP-catalyzed methylation, result in words, increased GLP/SAM (GLP [2]): lack of methylation
ART(F3a4)QTARKSTGGKA [H3F3a4, H3K4 peptide bearing meta-aminophenylalanine at position 4]	–	–	lack of methylation	–
